# Source: ChEMBL document CHEMBL5154681, “Small Amphiphilic Peptides: Activity Against a Broad Range of Drug-Resistant Bacteria and Structural Insight into Membranolytic Properties” (J Med Chem, 2022)
# The source made the active and inactive calls. The rule behind the calls is not given here. Square brackets hold non-standard residues; d marks the D form. Peptide text beside a SMILES is read from it. Dip = N[C@H](C(=O)O)C(c1ccccc1)c1ccccc1
# Legend:
# Escherichia coli [1] = experiment: Antibacterial activity against Escherichia coli ATCC 25922 incubated for 24 hrs by microtiter plate method; format: functional; conditions: Escherichia coli, ATCC 25922, 24 h, read-out: MIC
# [2] = Hemolytic activity in human RBC assessed as hemolysis incubated for 2 hrs by spectrophotometer analysis; format: toxicity, cell-based, Erythrocyte; conditions: human red blood cells (erythrocytes)
# Staphylococcus aureus [3] = experiment: Antibacterial activity against Staphylococcus aureus ATCC 29213 incubated for 24 hrs by microtiter plate method; format: functional; conditions: Staphylococcus aureus, ATCC 29213, read-out: MIC
# Pseudomonas aeruginosa [4] = experiment: Antibacterial activity against Pseudomonas aeruginosa ATCC 27883 incubated for 24 hrs by microtiter plate method; format: functional; conditions: Pseudomonas aeruginosa
# Staphylococcus aureus [5] = experiment: Antibacterial activity against methicillin resistant Staphylococcus aureus ATCC BAA-1556 incubated for 24 hrs by microtiter plate method; format: functional
# Staphylococcus aureus [6] = experiment: Antibacterial activity against methicillin resistant Staphylococcus aureus ATCC BAA-1556 after 24 hrs in presence of 1 mM of by microtiter plate method; format: functional
# Staphylococcus aureus [7] = experiment: Antibacterial activity against methicillin resistant Staphylococcus aureus ATCC BAA-1556 after 24 hrs in presence of 2 mM of CaCl2 by microtiter plate method; format: functional
# Staphylococcus aureus [8] = experiment: Antibacterial activity against methicillin resistant Staphylococcus aureus ATCC BAA-1556 after 24 hrs in presence of 6 mM of NH4Cl by microtiter plate method; format: functional
# Escherichia coli [9] = experiment: Antibacterial activity against Escherichia coli ATCC 25922 after 24 hrs in presence of 2 mM CaCl2 at by microtiter plate method; format: functional
# Staphylococcus aureus [10] = experiment: Antibacterial activity against methicillin resistant Staphylococcus aureus ATCC BAA-1556 incubated for 24 hrs; format: functional
# Escherichia coli [11] = experiment: Bactericidal activity against Escherichia coli ATCC BAA-2452 assessed as reduction of bacterial growth at MIC by counting formed colonies; format: functional, organism-based; conditions: time <= 4.0 hrs, TDE = time-dependent effect
# Staphylococcus aureus [12] = experiment: Bactericidal activity against methicillin resistant Staphylococcus aureus ATCC BAA-1556 assessed as reduction of bacterial growth at 4 times MIC by counting formed colonies; format: functional, organism-based; conditions: time <= 4.0 hrs, TDE = time-dependent effect
# Escherichia coli [13] = experiment: Antibacterial activity against Escherichia coli ATCC 25922 after 24 hrs in presence of 150 mM NaCl by microtiter plate method; format: functional
# Staphylococcus aureus [14] = experiment: Antibacterial activity against methicillin resistant Staphylococcus aureus ATCC BAA-1556 after 24 hrs in presence of fetal bovine serum by microtiter plate method; format: functional
# Escherichia coli [15] = experiment: Antibacterial activity against Escherichia coli ATCC 25922 after 24 hrs in presence of fetal bovine serum by microtiter plate method; format: functional
# Pseudomonas aeruginosa [16] = experiment: Antibacterial activity against imipenem resistant Pseudomonas aeruginosa ATCC BAA-1744 incubated for 24 hrs by microtiter plate method; format: functional
# Pseudomonas aeruginosa [17] = experiment: Antibacterial activity against Pseudomonas aeruginosa ATCC 10145 incubated for 24 hrs by microtiter plate method; format: functional
# Escherichia coli [18] = experiment: Antibacterial activity against Escherichia coli ATCC 25922 after 24 hrs in presence of 4.5 mM of KCl at by microtiter plate method; format: functional
# Escherichia coli [19] = experiment: Antibacterial activity against Escherichia coli ATCC 25922 assessed as reduction in microbial growth after 24 hrs in presence of 6 mM of NH4Cl at by microtiter plate method; format: functional
# Acinetobacter baumannii = experiment: Antibacterial activity against ciprofloxacin resistance Acinetobacter baumannii ATCC BAA1605 incubated for 24 hrs by microtiter plate method; format: functional
# Staphylococcus aureus [20] = experiment: Bactericidal activity against methicillin resistant Staphylococcus aureus ATCC BAA-1556 assessed as time required for complete reduction of bacterial growth at MIC by counting formed colonies; format: functional
# Staphylococcus aureus [21] = experiment: Antibacterial activity against methicillin resistant Staphylococcus aureus ATCC BAA-1556 after 24 hrs in presence of 150 mM of NaCl by microtiter plate method; format: functional
# Staphylococcus aureus [22] = experiment: Bactericidal activity against methicillin resistant Staphylococcus aureus ATCC BAA-1556 assessed as time required for complete reduction of bacterial growth at 4 times MIC by counting formed colonies; format: functional
# Staphylococcus aureus [23] = experiment: Antibacterial activity against methicillin resistant Staphylococcus aureus ATCC BAA-1556 after 24 hrs in presence of 4.5 mM of KCl by microtiter plate method; format: functional
# Escherichia coli [24] = experiment: Antibacterial activity against Escherichia coli ATCC 25922 incubated for 24 hrs; format: functional
# Staphylococcus aureus [25] = experiment: Bactericidal activity against methicillin resistant Staphylococcus aureus ATCC BAA-1556 assessed as reduction of bacterial growth at MIC by counting formed colonies; format: functional, organism-based; conditions: time <= 4.0 hrs, TDE = time-dependent effect
# Klebsiella pneumoniae [26] = experiment: Antibacterial activity against carbapenem-resistant Klebsiella pneumoniae ATCC BAA-2470 incubated for 24 hrs by microtiter plate method; format: functional
# Escherichia coli [27] = experiment: Bactericidal activity against Escherichia coli ATCC BAA-2452 assessed as reduction of bacterial growth at 4 times MIC by counting formed colonies; format: functional, organism-based; conditions: time <= 4.0 hrs, TDE = time-dependent effect
# Klebsiella pneumoniae [28] = experiment: Antibacterial activity against Klebsiella pneumoniae ATCC 13883 […] incubated for 24 hrs by microtiter plate method; format: functional
# Enterococcus faecalis [29] = experiment: Antibacterial activity against Enterococcus faecalis ATCC 29212 incubated for 24 hrs by microtiter plate method; format: functional
# Enterococcus faecium [30] = experiment: Antibacterial activity against Enterococcus faecium ATCC 27270 incubated for 24 hrs by microtiter plate method; format: functional
# Bacillus subtilis = experiment: Antibacterial activity against Bacillus subtilis ATCC 6633 incubated for 24 hrs by microtiter plate method; format: functional
# Streptococcus pneumoniae [31] = experiment: Antibacterial activity against multidrug resistant […] ATCC 700677 incubated for 24 hrs by microtiter plate method; format: functional
# Bacillus cereus = experiment: Antibacterial activity against Bacillus cereus ATCC 13061 incubated for 24 hrs by microtiter plate method; format: functional
# Enterococcus faecium [32] = experiment: Antibacterial activity against vancomycin-resistant Enterococcus faecium ATCC 700221 incubated for 24 hrs by microtiter plate method; format: functional
# Streptococcus pneumoniae [33] = experiment: Antibacterial activity against […] ATCC 49619 incubated for 24 hrs by microtiter plate method; format: functional
# Enterococcus faecalis [34] = experiment: Antibacterial activity against vancomycin-resistant Enterococcus faecalis ATCC 51575 incubated for 24 hrs by microtiter plate method; format: functional
# [35] = ATCC 27883, 24 h, read-out: MIC
# [36] = Staphylococcus aureus, ATCC BAA-1556, 24 h, read-out: MIC
structure (smiles),measurement,setting,value
N=C(N)NCCC[C@@H]1NC(=O)[C@H](CCCNC(=N)N)NC(=O)[C@H](CCCNC(=N)N)NC(=O)[C@H](C(c2ccccc2)c2ccccc2)NC(=O)[C@H](C(c2ccccc2)c2ccccc2)NC(=O)[C@H](C(c2ccccc2)c2ccccc2)NC(=O)[C@H](CCCNC(=N)N)NC(=O)[C@H](CCCNC(=N)N)NC1=O (cyclo([Dip][Dip][Dip]RRRRR)),MIC,Escherichia coli [1],25 µg/mL
same,HC50 at 2 h,[2],100 µg/mL
same,MIC,Staphylococcus aureus [3],6.2 µg/mL
same,MIC,Pseudomonas aeruginosa [4]; [35],25 µg/mL
same,MIC,Staphylococcus aureus [5]; [36],6.2 µg/mL
N=C(N)NCCC[C@@H]1NC(=O)[C@H](CCCNC(=N)N)NC(=O)[C@H](CCCNC(=N)N)NC(=O)[C@H](C(c2ccccc2)c2ccccc2)NC(=O)[C@H](C(c2ccccc2)c2ccccc2)NC(=O)[C@H](C(c2ccccc2)c2ccccc2)NC(=O)[C@H](C(c2ccccc2)c2ccccc2)NC(=O)[C@H](CCCNC(=N)N)NC1=O (cyclo([Dip][Dip][Dip][Dip]RRRR)),MIC,Escherichia coli [1],25 µg/mL
same,HC50 at 2 h,[2],40 µg/mL
same,MIC,Staphylococcus aureus [3],3.1 µg/mL
same,MIC,Pseudomonas aeruginosa [4]; [35],25 µg/mL
same,MIC,Staphylococcus aureus [5]; [36],6.2 µg/mL
N=C(N)NCCC[C@@H]1NC(=O)[C@H](CCCNC(=N)N)NC(=O)[C@H](C(c2ccccc2)c2ccccc2)NC(=O)[C@H](C(c2ccccc2)c2ccccc2)NC(=O)[C@H](CCCNC(=N)N)NC(=O)[C@H](CCCNC(=N)N)NC(=O)[C@H](C(c2ccccc2)c2ccccc2)NC1=O (stereo in doubt; 16C),MIC,Escherichia coli [1],> 100 µg/mL
same,HC50 at 2 h,[2],130 µg/mL
same,MIC,Staphylococcus aureus [3],6.2 µg/mL
same,MIC,Pseudomonas aeruginosa [4]; [35],50 µg/mL
same,MIC,Staphylococcus aureus [5]; 24 h,6.2 µg/mL
N=C(N)NCCC[C@@H]1NC(=O)[C@H](CCCNC(=N)N)NC(=O)[C@H](Cc2ccc3ccccc3c2)NC(=O)[C@H](Cc2ccc3ccccc3c2)NC(=O)[C@H](CCCNC(=N)N)NC(=O)[C@H](CCCNC(=N)N)NC(=O)[C@H](Cc2ccc3ccccc3c2)NC1=O (stereo in doubt; 18C),MIC,Escherichia coli [1],25 µg/mL
same,HC50 at 2 h,[2],105 µg/mL
same,MIC,Staphylococcus aureus [3],6.2 µg/mL
same,MIC,Pseudomonas aeruginosa [4]; [35],> 100 µg/mL
same,MIC,Staphylococcus aureus [5]; [36],6.2 µg/mL
O=C(O)c1cn(C2CC2)c2cc(N3CCNCC3)c(F)cc2c1=O [CIPROFLOXACIN],MIC,Staphylococcus aureus [6],1.5 µg/mL
same,MIC,Staphylococcus aureus [7],1.5 µg/mL
same,MIC,Staphylococcus aureus [8],0.7 µg/mL
same,MIC,Escherichia coli [9],0.3 µg/mL
same,MBC,Staphylococcus aureus [10],50 µg/mL
same,Activity,Escherichia coli [11],Tde
same,Activity,Staphylococcus aureus [12],Tde
same,MIC,Escherichia coli [13],0.3 µg/mL
same,MIC,Staphylococcus aureus [14],1.5 µg/mL
same,MIC,Escherichia coli [15],0.3 µg/mL
same,MIC,Staphylococcus aureus [3],1.5 µg/mL
same,MIC,Pseudomonas aeruginosa [16],0.7 µg/mL
same,MIC,Pseudomonas aeruginosa [17],0.7 µg/mL
same,MIC,Escherichia coli [18],0.3 µg/mL
same,MIC,Escherichia coli [19],0.3 µg/mL
same,MIC,Acinetobacter baumannii,0.7 µg/mL
same,MIC,"Pseudomonas aeruginosa [4]; ATCC 27883, read-out: MIC",0.7 µg/mL
same,Activity,Staphylococcus aureus [20],Active
same,MIC,Staphylococcus aureus [21],1.5 µg/mL
same,Activity,Staphylococcus aureus [22],Active
same,MIC,Staphylococcus aureus [5]; [36],3.1 µg/mL
same,MIC,Staphylococcus aureus [23],1.5 µg/mL
same,MBC,Escherichia coli [24],12.5 µg/mL
same,Activity,Staphylococcus aureus [25],Tde
same,MIC,Klebsiella pneumoniae [26],0.7 µg/mL
same,Activity,Escherichia coli [27],Tde
same,MIC,Klebsiella pneumoniae [28],1.5 µg/mL
CN[C@H](CC(C)C)C(=O)N[C@H]1C(=O)N[C@@H](CC(N)=O)C(=O)N[C@H]2C(=O)N[C@H]3C(=O)N[C@H](C(=O)N[C@H](C(=O)O)c4cc(O)cc(O)c4-c4cc3ccc4O)[C@H](O)c3ccc(c(Cl)c3)Oc3cc2cc(c3O[C@@H]2O[C@H](CO)[C@@H](O)[C@H](O)[C@H]2O[C@H]2C[C@](C)(N)[C@H](O)[C@H](C)O2)Oc2ccc(cc2Cl)[C@H]1O [VANCOMYCIN],MIC,Enterococcus faecalis [29],0.7 µg/mL
same,MIC,Enterococcus faecium [30],1.5 µg/mL
same,MIC,Bacillus subtilis,0.7 µg/mL
same,MIC,Streptococcus pneumoniae [31],1.5 µg/mL
same,MIC,Bacillus cereus,0.7 µg/mL
same,MIC,Enterococcus faecium [32],> 50 µg/mL
same,MIC,Streptococcus pneumoniae [33],3.1 µg/mL
same,MIC,Enterococcus faecalis [34],> 50 µg/mL
